Patent publication US20210330611A1, “THERAPY FOR NEUROLOGICAL DISEASES/DISORDERS” (priority 2020, published 2021)

Key:
[1] = test system: fibrin-induced microglia activation; assay: Image-based assay of fibrin-induced microglia activation (HTS and dose response); type: cell-based, rat; details: for inhibition at 10 µM: Rattus norvegicus, Microglia, primary HTS, fibrin-stimulated primary microglia, read-out: Fibrin % inhibition
[2] = test system: LPS-induced microglia activation; assay: Image-based assay of LPS-induced microglia activation (HTS and dose response); type: cell-based, rat; details: for inhibition at 10 µM: Rattus norvegicus, Microglia, primary HTS, LPS-stimulated primary microglia, read-out: LPS % inhibition
primary rat microglia [3] = assay: Cell toxicity (dead cells, size <150 μm2) in coated fibrin (cFib) assay;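 note: share of dead cells sized under 150 µm2 at 10 µM in fibrin-stimulated microglia HTS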
[4] = test system: fibrin- and LPS-induced microglia activation; assay: cells; type: cell-based, rat
primary rat microglia [5] = assay: Cell toxicity (dead cells, size <150 μm2) in LPS assay
[6] = primary HTS, 10 μM, fibrin assay, dead cells size <150 μm2
[7] = primary HTS, 10 μM, LPS assay, dead cells size <150 μm2

SMILES	inhibition at 10 µM [1] [%]	inhibition at 10 µM [2] [%]	Fibrin % cell toxicity (primary rat microglia [3]; [6]) [%]	Quadrant (FIG. 5b) ([4]; primary HTS, 10 μM)	LPS % cell toxicity (primary rat microglia [5]; [7]) [%]	Fibrin % inhibition ([1]; primary microglia HTS, fibrin stimulation, increased cell size (>800 μm^2) as marker of activation) [%]	LPS % inhibition ([2]; primary microglia HTS, LPS stimulation, increased cell size (>800 μm^2) as marker of activation) [%]	Fibrin % cell toxicity (primary rat microglia [3]; primary microglia HTS, fibrin stimulation, decreased size (<150 μm^2) as marker of toxicity) [%]	Quadrant (FIG. 5b) ([4]; quadrant by fibrin and LPS inhibition in HTS of 1907 compounds)	LPS % cell toxicity (primary rat microglia [5]; primary microglia HTS, LPS stimulation, decreased size (<150 μm^2) as marker of toxicity) [%]
CC(C)(Oc1ccc(Cl)cc1)C(=O)O [Clofibric Acid]	-27	15	1	Q4	0	–	–	–	–	–
CC(C)(C)CC(C)(C)c1ccc(O)c(Cc2ccc(Cl)cc2Cl)c1 [Clofoctol]	-26	2	0	Q4	0	–	–	–	–	–
O=C1CN=C(c2ccccc2Cl)c2cc([N+](=O)[O-])ccc2N1 [Clonazepam]	-12	-9	0	Q4	0	–	–	–	–	–
Cc1nc(C)c(Cl)c(O)c1Cl [Clopidol]	-41	9	1	Q4	0	–	–	–	–	–
Cc1cc(C(C#N)c2ccc(Cl)cc2)c(Cl)cc1NC(=O)c1cc(I)cc(I)c1O (stereo not shown) [Closantel]	-9	5	0	Q4	0	–	–	–	–	–
Cc1onc(-c2ccccc2Cl)c1C(=O)N[C@@H]1C(=O)N2[C@@H]1SC(C)(C)[C@@H]2C(=O)O [Cloxacillin]	-13	17	1	Q4	1	–	–	–	–	–
Oc1ccc(Cl)c2cccnc12 [Cloxyquin]	-4	18	0	Q4	0	–	–	–	–	–
C=C[C@@]1(C)CC(=O)[C@]2(O)[C@@]3(C)[C@@H](O)CCC(C)(C)[C@@H]3[C@H](O)[C@H](OC(C)=O)[C@@]2(C)O1 [Colforsin]	46	26	1	Q4	0	–	–	–	–	–
CC[C@H](C)C(=O)O[C@H]1CCC=C2C=C[C@H](C)[C@H](CC[C@@H]3C[C@@H](O)CC(=O)O3)[C@H]21 [Compactin, Mevastatin]	–	–	–	–	–	105	89	3	Q2	2
CC(=O)OCC(=O)[C@@]1(O)CC[C@H]2[C@@H]3CCC4=CC(=O)CC[C@]4(C)[C@H]3C(=O)C[C@@]21C [Cortisone Acetate]	0	7	1	Q4	0	–	–	–	–	–
CN1C(=O)CC[C@H]1c1cccnc1 [Cotinine]	-39	6	1	Q4	1	–	–	–	–	–
